{
  "source": "PubChem BioAssay (NCI)",
  "assay_in_all_cases": "NCI tumour cell line growth inhibition, 48 h",
  "key": {"SN12K1 renal": {"system": "SN12K1 renal"}, "M19-MEL melanoma": {"system": "M19-MEL melanoma"}, "DLD-1 colon": {"system": "DLD-1 colon"}, "SNB-78 CNS": {"system": "SNB-78 CNS"}, "KM20L2 colon": {"system": "KM20L2 colon"}, "DMS 114 small cell lung": {"system": "DMS 114 small cell lung"}, "P388/ADR leukemia": {"system": "P388/ADR leukemia"}, "DMS 273 small cell lung": {"system": "DMS 273 small cell lung"}, "RXF-631 renal": {"system": "RXF-631 renal"}, "LXFL 529 NSCLC": {"system": "LXFL 529 NSCLC"}, "P388 leukemia": {"system": "P388 leukemia"}},
  "note": "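Cells were grown in 96-well plates and exposed to each compound for 48 hours at five concentrations; endpoints were interpolated linearly between bracketing concentrations, or set to the highest concentration if not reached. GI50 is the concentration that inhibits growth by half. TGI marks complete inhibition of growth.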",
  "data": [
    {"smiles": "O=C(NCCCl)O/N=C/c1cccnc1", "values": [
      {"measurement": "TGI", "setting": "SN12K1 renal", "value": "> 100", "unit": "µM"},
      {"measurement": "TGI", "setting": "M19-MEL melanoma", "value": "> 100", "unit": "µM"},
      {"measurement": "TGI", "setting": "DLD-1 colon", "value": "> 100", "unit": "µM"},
      {"measurement": "GI50", "setting": "SNB-78 CNS", "value": "> 100", "unit": "µM"},
      {"measurement": "TGI", "setting": "SNB-78 CNS", "value": "> 100", "unit": "µM"},
      {"measurement": "GI50", "setting": "KM20L2 colon", "value": "> 100", "unit": "µM"},
      {"measurement": "TGI", "setting": "KM20L2 colon", "value": "> 100", "unit": "µM"},
      {"measurement": "TGI", "setting": "DMS 114 small cell lung", "value": "> 100", "unit": "µM"},
      {"measurement": "TGI", "setting": "P388/ADR leukemia", "value": "> 100", "unit": "µM"},
      {"measurement": "TGI", "setting": "DMS 273 small cell lung", "value": "> 100", "unit": "µM"}
    ]},
    {"smiles": "CN1Cc2c(nc(-c3ccccc3)c[n+]2[O-])N(C)C1", "values": [
      {"measurement": "TGI", "setting": "M19-MEL melanoma", "value": "> 100", "unit": "µM"},
      {"measurement": "TGI", "setting": "DLD-1 colon", "value": "> 100", "unit": "µM"},
      {"measurement": "TGI", "setting": "SNB-78 CNS", "value": "> 100", "unit": "µM"},
      {"measurement": "TGI", "setting": "KM20L2 colon", "value": "> 100", "unit": "µM"},
      {"measurement": "TGI", "setting": "RXF-631 renal", "value": "> 100", "unit": "µM"},
      {"measurement": "TGI", "setting": "DMS 114 small cell lung", "value": "> 100", "unit": "µM"},
      {"measurement": "TGI", "setting": "LXFL 529 NSCLC", "value": "> 100", "unit": "µM"},
      {"measurement": "TGI", "setting": "DMS 273 small cell lung", "value": "> 100", "unit": "µM"}
    ]},
    {"smiles": "O=C1NC(O)CCN1C1OC(CO)C(O)C1O", "note": "(stereo not drawn)", "values": [
      {"measurement": "TGI", "setting": "SN12K1 renal", "value": "> 250", "unit": "µM"},
      {"measurement": "TGI", "setting": "M19-MEL melanoma", "value": "> 250", "unit": "µM"},
      {"measurement": "TGI", "setting": "DLD-1 colon", "value": "> 250", "unit": "µM"},
      {"measurement": "TGI", "setting": "SNB-78 CNS", "value": "> 250", "unit": "µM"},
      {"measurement": "TGI", "setting": "KM20L2 colon", "value": "> 127", "unit": "µM"},
      {"measurement": "TGI", "setting": "DMS 114 small cell lung", "value": "> 250", "unit": "µM"},
      {"measurement": "TGI", "setting": "P388/ADR leukemia", "value": "> 250", "unit": "µM"},
      {"measurement": "TGI", "setting": "P388 leukemia", "value": "> 250", "unit": "µM"},
      {"measurement": "TGI", "setting": "DMS 273 small cell lung", "value": "> 250", "unit": "µM"}
    ]},
    {"smiles": "C=CC1(C)CC(=O)C2(O)C(C)(O1)C(OC(C)=O)C(O)C1C(C)(C)CCC(O)C12C", "note": "(stereo not drawn)", "values": [
      {"measurement": "TGI", "setting": "SN12K1 renal", "value": "> 150", "unit": "µM"},
      {"measurement": "TGI", "setting": "M19-MEL melanoma", "value": "> 127", "unit": "µM"},
      {"measurement": "TGI", "setting": "DLD-1 colon", "value": "> 150", "unit": "µM"},
      {"measurement": "TGI", "setting": "SNB-78 CNS", "value": "> 150", "unit": "µM"},
      {"measurement": "TGI", "setting": "KM20L2 colon", "value": "> 150", "unit": "µM"},
      {"measurement": "GI50", "setting": "DMS 114 small cell lung", "value": "> 71.6", "unit": "µM"},
      {"measurement": "TGI", "setting": "DMS 114 small cell lung", "value": "> 108", "unit": "µM"},
      {"measurement": "TGI", "setting": "P388/ADR leukemia", "value": "> 84.4", "unit": "µM"},
      {"measurement": "TGI", "setting": "P388 leukemia", "value": "> 150", "unit": "µM"},
      {"measurement": "TGI", "setting": "DMS 273 small cell lung", "value": "> 150", "unit": "µM"}
    ]},
    {"smiles": "COc1ccc(CC(N)=O)cc1OC", "values": [
      {"measurement": "TGI", "setting": "SN12K1 renal", "value": "> 1250", "unit": "µM"},
      {"measurement": "TGI", "setting": "M19-MEL melanoma", "value": "> 1250", "unit": "µM"},
      {"measurement": "TGI", "setting": "DLD-1 colon", "value": "> 1250", "unit": "µM"},
      {"measurement": "TGI", "setting": "SNB-78 CNS", "value": "> 1250", "unit": "µM"},
      {"measurement": "TGI", "setting": "KM20L2 colon", "value": "> 1250", "unit": "µM"},
      {"measurement": "TGI", "setting": "DMS 114 small cell lung", "value": "> 1250", "unit": "µM"},
      {"measurement": "TGI", "setting": "P388/ADR leukemia", "value": "> 1250", "unit": "µM"},
      {"measurement": "TGI", "setting": "P388 leukemia", "value": "> 1250", "unit": "µM"},
      {"measurement": "TGI", "setting": "DMS 273 small cell lung", "value": "> 1250", "unit": "µM"}
    ]},
    {"smiles": "COc1cc(C2c3cc4c(cc3[C@@H](Nc3ccccc3)C3COC(=O)[C@H]23)OCO4)cc(OC)c1O", "note": "(stereo partly drawn)", "values": [
      {"measurement": "TGI", "setting": "SN12K1 renal", "value": 8.65, "unit": "µM"},
      {"measurement": "TGI", "setting": "M19-MEL melanoma", "value": 16.6, "unit": "µM"},
      {"measurement": "TGI", "setting": "DLD-1 colon", "value": 6.64, "unit": "µM"},
      {"measurement": "TGI", "setting": "SNB-78 CNS", "value": "> 91", "unit": "µM"},
      {"measurement": "TGI", "setting": "KM20L2 colon", "value": "> 23.3", "unit": "µM"},
      {"measurement": "TGI", "setting": "DMS 114 small cell lung", "value": 3.42, "unit": "µM"},
      {"measurement": "TGI", "setting": "P388/ADR leukemia", "value": 4.59, "unit": "µM"},
      {"measurement": "TGI", "setting": "P388 leukemia", "value": 2.35, "unit": "µM"},
      {"measurement": "TGI", "setting": "DMS 273 small cell lung", "value": 3.35, "unit": "µM"}
    ]},
    {"smiles": "CCOC(=O)/C=C1/C(CCCOCc2ccccc2)C2CCCC23CC2(CCN13)OCCO2", "note": "(stereo not drawn)", "values": [
      {"measurement": "TGI", "setting": "M19-MEL melanoma", "value": 40, "unit": "µM"},
      {"measurement": "TGI", "setting": "DLD-1 colon", "value": 73.3, "unit": "µM"},
      {"measurement": "TGI", "setting": "SNB-78 CNS", "value": 85.8, "unit": "µM"},
      {"measurement": "TGI", "setting": "KM20L2 colon", "value": 56, "unit": "µM"},
      {"measurement": "TGI", "setting": "RXF-631 renal", "value": 94.6, "unit": "µM"},
      {"measurement": "TGI", "setting": "DMS 114 small cell lung", "value": 32.9, "unit": "µM"},
      {"measurement": "TGI", "setting": "LXFL 529 NSCLC", "value": 90.2, "unit": "µM"},
      {"measurement": "TGI", "setting": "DMS 273 small cell lung", "value": 37.9, "unit": "µM"}
    ]},
    {"smiles": "O=C(NN1C(=O)CS(=O)(=O)C1c1ccc(C(F)(F)F)cc1)c1ccncc1", "note": "(stereo not drawn)", "values": [
      {"measurement": "TGI", "setting": "DLD-1 colon", "value": "> 100", "unit": "µM"},
      {"measurement": "TGI", "setting": "SNB-78 CNS", "value": "> 100", "unit": "µM"},
      {"measurement": "TGI", "setting": "DMS 114 small cell lung", "value": "> 100", "unit": "µM"},
      {"measurement": "TGI", "setting": "LXFL 529 NSCLC", "value": "> 100", "unit": "µM"},
      {"measurement": "TGI", "setting": "DMS 273 small cell lung", "value": "> 100", "unit": "µM"}
    ]}
  ]
}
